Experimental data from US8173682B2, “Substituted pyridones as inhibitors of poly(ADP-ribose) polymerase (PARP)” (Aventis Pharmaceuticals Inc., priority 2004, dated 2012).
Structures can show the parent of a compound that is named as a salt.

Molecular target: T1, recombinant human PARP (PARP1) (Homo sapiens, UniProt P09874)
T1 construct: Full length human PARP (PARP1) is assembled from PCR fragments; His6 tag with TEV site, from the pFastBac-HTb vector (own knowledge of the vector); made in house; host or cells: insect cells, baculovirus (Bac-to-Bac, Gibco-BRL)
Assay: PARP enzyme assay, Method A (radioactivity or 'ELISA' enzyme assay with partially purified enzyme)
Type: biochemical
Conditions: recombinant human PARP preparation, radioactive or ELISA enzyme assay
Source text: Two different methods are employed in determining the activity of the compounds of this invention in inhibiting the activity of PARP enzyme, designated as Method A and Method B respectively as set forth below.
Method A: Cloning and Expression, and Partial Purification of Recombinant Human PARP:
Full length human PARP (PARP1) is assembled from PCR fragments of a clone from a human brain cDNA library and two Incyte clones. The PARP gene (3046 bp) is sub-cloned into pFastBac-HTb vector to give PARP-pFastBac-HTb and the sequence of this clone is verified. PARP-pFastBac-HTb is expressed to obtain protein using the Bac-to-Bac expression protocol from Gibco-BRL. The recombinant virus generated is used to scale up the material for purification.
Cell pellets from cell broth of cells expressing PARP are treated with a cocktail of protease inhibitors and lysed by 4 freeze-thaw cycles. The material is suspended in 10 mM HEPES/0.1M NaCl/pH 7.2, stirred, and then centrifuged. A 40%-70% ammonium sulfate cut of protein pellet is obtained from the supernatant. The pellet is solubilized in 10 mM HEPES/pH 7.2 and centrifuged. The supernatant buffer is exchanged to 10 mM HEPES/pH 7.2/0.1M NaCl/25% glycerol by dialysis or with a desalting column. The enzyme preparation is stored at −20° C. until use.
The compounds of this invention are then tested with this enzyme preparation using either the radioactive enzyme assay or by the “ELISA” enzyme assay as set forth below.
Radioactivity Enzyme Assay:
Incorporation of radioactivity from labeled NAD into acid-precipitated protein is measured. The reaction mixture (volume 100 μL or 50 μL, in a test-tube or 96-well plate) contained 100 μg/mL calf thymus DNA (sonicated), 100 μg/mL histones, 100 mM Tris (pH 8.0), 1.0 mM DTT, 10 mM MgCl2, NAD (200 μM, 0.65 microcurie/mL), and varying amounts of enzyme. The reaction was incubated for 10 min at 37° C. or at room temperature for 60 min. The reaction was stopped and protein precipitated by addition of ice-cold trichloroacetic acid (TCA; 10% or 20% aqueous w/v). After brief storage in ice or at 4° C. for 2 hrs, the reaction mixture is filtered under vacuum through a glass fiber filter (2.5 cm disc, or 96-well filter plate). After washing with TCA and ethanol, the filter is dried and counted for tritium CPM after addition of scintillation fluid.
Incorporation of biotin-NAD into histone coated on plate is measured. A 96-well protein-binding EIA plate is coated with histone and blocked with bovine serum albumin. The reaction mixture (50 μL) contained DNA, buffer, enzyme, (test compound), and 250 μM of NAD and 5 μL of biotin-NAD (Trevigen). After reaction at room temperature the wells are washed and treated with Extravidin (Sigma). After incubation and washing color is developed with the peroxidase substrate TMB (Sigma). The TMB reaction is quenched with 2M sulfuric acid and the absorbance at 450 nm is read.

T1 sequence (P09874 whole entry, the tested form may be a part): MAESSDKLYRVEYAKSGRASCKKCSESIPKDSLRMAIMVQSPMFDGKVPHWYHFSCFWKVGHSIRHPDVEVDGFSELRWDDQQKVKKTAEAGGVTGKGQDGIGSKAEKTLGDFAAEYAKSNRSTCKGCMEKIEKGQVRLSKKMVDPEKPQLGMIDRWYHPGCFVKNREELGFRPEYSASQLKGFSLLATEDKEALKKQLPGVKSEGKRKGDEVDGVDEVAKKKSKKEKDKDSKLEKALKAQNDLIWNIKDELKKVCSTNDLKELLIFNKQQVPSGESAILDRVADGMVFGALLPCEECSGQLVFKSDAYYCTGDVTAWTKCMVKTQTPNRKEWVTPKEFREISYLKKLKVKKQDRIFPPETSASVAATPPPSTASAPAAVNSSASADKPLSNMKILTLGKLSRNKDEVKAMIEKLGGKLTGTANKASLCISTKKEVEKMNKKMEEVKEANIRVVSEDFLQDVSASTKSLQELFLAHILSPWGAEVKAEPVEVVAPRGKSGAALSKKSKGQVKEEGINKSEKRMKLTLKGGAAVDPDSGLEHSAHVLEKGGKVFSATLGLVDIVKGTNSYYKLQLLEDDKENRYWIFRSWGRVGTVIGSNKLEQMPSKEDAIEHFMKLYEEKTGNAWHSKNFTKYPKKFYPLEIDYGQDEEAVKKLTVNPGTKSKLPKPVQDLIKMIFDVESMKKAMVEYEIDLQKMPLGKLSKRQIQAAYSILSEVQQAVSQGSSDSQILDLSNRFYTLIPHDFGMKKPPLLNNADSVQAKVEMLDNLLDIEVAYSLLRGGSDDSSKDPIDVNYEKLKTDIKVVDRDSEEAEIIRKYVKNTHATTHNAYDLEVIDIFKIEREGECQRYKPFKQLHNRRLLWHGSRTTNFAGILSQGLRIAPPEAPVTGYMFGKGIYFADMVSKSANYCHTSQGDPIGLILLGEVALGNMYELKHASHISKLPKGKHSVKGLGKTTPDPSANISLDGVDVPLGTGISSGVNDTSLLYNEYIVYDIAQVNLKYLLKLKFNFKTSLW

Structure (SMILES) | IC50
CCc1cc(-c2ccc(S(=O)(=O)NC3CCN(Cc4ncc[nH]4)CC3)s2)c(C)[nH]c1=O [Example 83, 5-[5-Ethyl-2-methyl-6-oxo-1,6-dihydropyridin-3-yl]thiophene-2-sulfonic acid (1-imidazol-2-yl)methyl(piperidin-4-yl)]amide dihydrochloride] | 2.8 µM
CCc1cc(-c2ccc(S(=O)(=O)NCCCCc3cccnc3)s2)c(C)[nH]c1=O [Example 84, 5-[5-Ethyl-2-methyl-6-oxo-1,6-dihydropyridin-3-yl]thiophene-2-sulfonic acid 4-(pyridin-3-ylbutyl)]amide hydrochloride] | 1.6 µM
CCc1cc(-c2ccc(S(=O)(=O)N3CCOCC3)s2)c(C)[nH]c1=O [Example 86, 3-Ethyl-6-methyl-5-[5-(morpholine-4-sulfonyl)thiophen-2-yl]-1H-pyridin-2-one] | 4.5 µM
CCc1cc(-c2ccc(S(=O)(=O)N3CCC(O)CC3)s2)c(C)[nH]c1=O [Example 87, 3-Ethyl-5-[5-(4-hydroxypiperidine-1-sulfonyl)thiophen-2-yl]-6-methyl-1H-pyridin-2-one] | 5.3 µM
CCOC(=O)N1CCN(S(=O)(=O)c2ccc(-c3cc(CC)c(=O)[nH]c3C)s2)CC1 [Example 89, 4-[5-(5-Ethyl-2-methyl-6-oxo-1,6-dihydropyridin-3-yl)thiophene-2-sulfonyl]piperazine-1-carboxylic acid ethyl ester] | 10.8 µM
CCc1cc(-c2ccc(S(=O)(=O)N3CCN(CCO)CC3)s2)c(C)[nH]c1=O [Example 91, 3-Ethyl-5-{5-[4-(2-hydroxyethyl)piperazine-1-sulfonyl]thiophen-2-yl}-6-methyl-1H-pyridin-2-one hydrochloride] | 2.9 µM
CCc1cc(-c2ccc(S(=O)(=O)N3CCN(C)CC3)s2)c(C)[nH]c1=O [Example 92, 3-Ethyl-6-methyl-5-[5-(4-methylpiperazine-1-sulfonyl)thiophen-2-yl]-1H-pyridin-2-one] | 1.3 µM
CCc1cc(-c2ccc(S(=O)(=O)N3CCNCC3)s2)c(C)[nH]c1=O [Example 94, 3-Ethyl-6-methyl-5-[5-(piperazine-1-sulfonyl)thiophen-2-yl]-1H-pyridin-2-one hydrochloride] | 1.4 µM
CCc1cc(-c2ccc(S(=O)(=O)N3CCN(CCOCCO)CC3)s2)c(C)[nH]c1=O [Example 99, 3-Ethyl-5-(5-{4-[2-(2-hydroxy-ethoxy)-ethyl]-piperazine-1-sulfonyl}-thiophen-2-yl)-6-methyl-1H-pyridin-2-one hydrochloride] | 1.3 µM
CCc1cc(-c2ccc(S(=O)(=O)N3CCN(Cc4ccccc4)CC3)s2)c(C)[nH]c1=O [Example 100, 5-[5-(4-Benzylpiperazine-1-sulfonyl)thiophen-2-yl]-3-ethyl-6-methyl-1H-pyridin-2-one hydrochloride] | 2.2 µM
CCc1cc(-c2ccc(S(=O)(=O)N3CCN(Cc4ccc5c(c4)OCO5)CC3)s2)c(C)[nH]c1=O [Example 104, 5-[5-(4-1,3-Benzodioxol-5-ylmethylpiperazine-1-sulfonyl)-thiophen-2-yl]-3-ethyl-6-methyl-1H-pyridin-2-one hydrochloride] | 2.5 µM
CCc1cc(-c2ccc(S(=O)(=O)N3CCC[C@H]3CNc3ccccc3)s2)c(C)[nH]c1=O [Example 105, 3-Ethyl-6-methyl-5-[5-((S)-2-phenylaminomethylpyrrolidine-1-sulfonyl)-thiophen-2-yl]-1H-pyridin-2-one hydrochloride] | 3.1 µM
CCc1cc(-c2ccc(S(=O)(=O)N3CCC(C(=O)c4ccccc4)CC3)s2)c(C)[nH]c1=O [Example 108, 5-[5-(4-Benzoylpiperidine-1-sulfonyl)thiophen-2-yl]-3-ethyl-6-methyl-1H-pyridin-2-one] | 1 µM
CCc1cc(-c2ccc(S(=O)(=O)NCC3CCCO3)s2)c(C)[nH]c1=O (stereo not shown) [Example 112, 5-(5-Ethyl-2-methyl-6-oxo-1,6-dihydropyridin-3-yl)thiophene-2-sulfonic acid (tetrahydrofuran-2-ylmethyl)amide] | 1.2 µM

These reach a lower IC50. Values come first.

IC50 | Structure (SMILES)
0.43 µM | CCc1cc(-c2ccc(S(=O)(=O)NCc3nccn3C)s2)c(C)[nH]c1=O [Example 80, 5-[5-Ethyl-2-methyl-6-oxo-1,6-dihydropyridin-3-yl]thiophene-2-sulfonic acid (1-methylimidazol-2-yl)methyl]amide hydrochloride]
0.54 µM | CCc1cc(-c2ccc(S(=O)(=O)N(C)C3CCN(C)C3)s2)c(C)[nH]c1=O (stereo not shown) [Example 81, 5-[5-Ethyl-2-methyl-6-oxo-1,6-dihydropyridin-3-yl]thiophene-2-sulfonic acid methyl (1-methylpyrrolidin-3-yl)amide hydrochloride]
0.48 µM | CCc1cc(-c2ccc(S(=O)(=O)NC3CCN(Cc4ccncc4)CC3)s2)c(C)[nH]c1=O [Example 82, 5-[5-Ethyl-2-methyl-6-oxo-1,6-dihydropyridin-3-yl]thiophene-2-sulfonic acid [1-(pyridin-4-yl)methyl(piperidin-4-yl)]amide dihydrochloride]
0.68 µM | CCc1cc(-c2ccc(S(=O)(=O)N3CCCC(CO)C3)s2)c(C)[nH]c1=O (stereo not shown) [Example 90, 3-Ethyl-5-[5-(3-hydroxymethylpiperidine-1-sulfonyl)thiophen-2-yl]-6-methyl-1H-pyridin-2-one]
0.72 µM | CCc1cc(-c2ccc(S(=O)(=O)NCCCN(CC)CC)s2)c(C)[nH]c1=O [Example 96, 5-(5-Ethyl-2-methyl-6-oxo-1,6-dihydropyridin-3-yl)-thiophene-2-sulfonic acid (3-diethylaminopropyl)amide hydrochloride]
0.18 µM | CCc1cc(-c2ccc(S(=O)(=O)NCc3ccco3)s2)c(C)[nH]c1=O [Example 97, 5-(5-Ethyl-2-methyl-6-oxo-1,6-dihydropyridin-3-yl)-thiophene-2-sulfonic acid (furan-2-ylmethyl)amide]
0.41 µM | CCc1cc(-c2ccc(S(=O)(=O)NCCOc3ccccc3)s2)c(C)[nH]c1=O [Example 98, 5-(5-Ethyl-2-methyl-6-oxo-1,6-dihydropyridin-3-yl)-thiophene-2-sulfonic acid (2-phenoxyethyl)amide]
0.49 µM | CCc1cc(-c2ccc(S(=O)(=O)NCC3CCCN3CC)s2)c(C)[nH]c1=O (stereo not shown) [Example 102, 5-(5-Ethyl-2-methyl-6-oxo-1,6-dihydropyridin-3-yl)-thiophene-2-sulfonic acid (1-ethyl-pyrrolidin-2-ylmethyl)amide hydrochloride]
0.14 µM | CCc1cc(-c2ccc(S(=O)(=O)NCc3ccc4c(c3)OCO4)s2)c(C)[nH]c1=O [Example 103, 5-(5-Ethyl-2-methyl-6-oxo-1,6-dihydropyridin-3-yl)-thiophene-2-sulfonic acid (1,3-benzodioxol-5-ylmethyl)amide]
0.43 µM | CCc1cc(-c2ccc(S(=O)(=O)N(C)Cc3ccco3)s2)c(C)[nH]c1=O [Example 106, 5-(5-Ethyl-2-methyl-6-oxo-1,6-dihydro-pyridin-3-yl)thiophene-2-sulfonic acid furan-2-yl-methyl-methylamide]
0.21 µM | CCc1cc(-c2ccc(S(N)(=O)=O)s2)c(C)[nH]c1=O [Example 111, 5-(5-ethyl-2-methyl-6-oxo-1,6-dihydro-pyridin-3-yl)-thiophene-2-sulfonic acid amide]
0.9 µM | CCc1cc(-c2ccc(S(=O)(=O)NCC(C)O)s2)c(C)[nH]c1=O (stereo not shown) [Example 113, 5-(5-Ethyl-2-methyl-6-oxo-1,6-dihydropyridin-3-yl)thiophene-2-sulfonic acid (2-hydroxypropyl)amide]
0.37 µM | CCc1cc(-c2ccc(S(=O)(=O)NCC(O)c3ccccc3)s2)c(C)[nH]c1=O (stereo not shown) [Example 114, 5-(5-Ethyl-2-methyl-6-oxo-1,6-dihydropyridin-3-yl)thiophene-2-sulfonic acid (2-hydroxy-2-phenylethyl)amide]
0.45 µM | CCc1cc(-c2ccc(S(=O)(=O)N3CCN(c4ccccn4)CC3)s2)c(C)[nH]c1=O [Example 116, 3-Ethyl-6-methyl-5-{5-[(4-pyridin-2-yl)piperazine-1-sulfonyl]thiophen-2-yl}-1H-pyridin-2-one hydrochloride]
